The values below come from patent US6525079B2, “Anti-parasitic heterocycle compounds, agents, formulations, and methods of use thereof” (Pfizer Inc., priority 1998, dated 2003).

For experiment [1], the system named is Adult flies (Stomoxys calcitrans). In words: Test for insecticidal activity: topical application to adult flies, mortality after 24 hours. The class given is in vivo. The settings on record: 1 μl acetone solution applied to thorax of fly; mortality assessed 24 hours after dosing. Here is the method: Test for Insecticidal Activity Adult flies (Stomoxys calcitrans) are collected and anaesthetized using CO2- 1 μl of an acetone solution containing the test substance is applied directly to the thorax of the fly. The flies are then placed carefully into a 50 ml tube covered with damp gauze to recover from the CO2. Negative controls have 1 μl of acetone dispensed onto them. Mortality is assessed 24 hours after dosing. The table below illustrates the in vivo activity of a selection of the substances of the invention against such flies. Dosages required to produce 100% mortality are expressed in μg/fly.

Experiment [2] has as its system Boophilus microplus larvae. In words: Test for acaricidal activity: treated filter paper envelope, larval mortality. The class given is in vivo. The settings on record: Rhipicephalus microplus, larvae exposed 48 hours at 25° C.; for mortality at 0.5 µg/cm2: dosage 0.5 μg/cm^2 on filter paper. The protocol:
Test for Acaricidal Activity
A dose of 10 μg/cm^2 is created by evenly pipetting 0.5 ml of a 1 mg/ml solution of the test compound in a suitable solvent such as acetone or ethanol onto a Whatman No. 1 (Trade Mark) filter paper cut to a size of 8×6.25 cm. When dry, the paper is folded in half, sealed on two sides using a crimping device and placed in a Kilner jar containing a cotton wool pad dampened with water. The jar is then sealed and placed at 25° C. for 24 hours. Next, approximately 50 Boophilus microplus larvae are introduced into the treated paper envelope which is then crimped along the third side to effect a complete seal. The paper envelope is returned to the Kilner jar, which is sealed and placed at 25° C. for a further 48 hours. The papers are then removed and mortality assessed. Negative controls are provided by treating an appropriately cut filter paper with 0.5 ml of solvent only and following the same procedure. Activity at other doses is obtained by varying the concentration of the test solution. The table below illustrates the in vivo activity of a selection of the compounds of the invention against Boophilus microplus larvae. Dosages are expressed in μg/cm^2.

Consider `FC(F)(F)c1cc(Cl)c(-n2cc(C3CC3(Cl)Cl)nn2)c(Cl)c1` (centres unmarked) [Example 2, 4-(2,2-Dichlorocyclopropyl)-1-(2,6-dichloro-4-trifluoromethylphenyl)-1,2,3-triazole], for which, in experiment [1], the “Dosage required to produce 100% mortality” value is on record as 0.01 μg/fly. The same molecule yielded a mortality at 1 µg/cm2 in experiment [2] (dosage 1 μg/cm^2 on filter paper) of 100%. For `FC(F)(F)c1cc(Cl)c(-n2cc(C3CC3(Br)Br)c3ccccc32)c(Cl)c1` (centres unmarked) [Example 4, 3-(2,2-Dibromocyclopropyl)-1-(2,6-dichloro-4-trifluoromethylphenyl)indole], the “Dosage required to produce 100% mortality” value in experiment [1] was 0.05 μg/fly.

For `FC(F)(F)c1cc(Cl)c(-n2cnc(C3CC3(Br)Br)n2)c(Cl)c1` (centres unmarked) [Example 6, 3-(2,2-Dibromocyclopropyl)-1-(2,6-dichloro-4-trifluoromethylphenyl)-1,2,4-triazole], the “Dosage required to produce 100% mortality” value in experiment [1] is 0.01 μg/fly.

As for `N#Cc1cn(-c2c(Cl)cc(C(F)(F)F)cc2Cl)cc1C1CC1(Br)Br` (centres unmarked) [Example 3, 3-Cyano-4-(2,2-dibromocyclopropyl)-1-(2,6-dichloro-4-trifluoromethylphenyl)pyrrole], the “Dosage required to produce 100% mortality” value in experiment [1] is listed as 0.005 μg/fly. In experiment [2], the mortality at 0.5 µg/cm2 is 100%. The corresponding values for `FC(F)(F)c1cc(Cl)c(-n2cc(C3CC3(Br)Br)nn2)c(Cl)c1` (centres unmarked) [Example 1, 4-(2,2-Dibromocyclopropyl)-1-(2,6-dichloro-4-trifluoromethylphenyl)-1,2,3-triazole] are 0.005 μg/fly and 90%.
